Target: T1, Mitogen-activated protein kinase kinase kinase 5 (Homo sapiens, UniProt Q99683)
T1 sequence (Q99683 whole entry): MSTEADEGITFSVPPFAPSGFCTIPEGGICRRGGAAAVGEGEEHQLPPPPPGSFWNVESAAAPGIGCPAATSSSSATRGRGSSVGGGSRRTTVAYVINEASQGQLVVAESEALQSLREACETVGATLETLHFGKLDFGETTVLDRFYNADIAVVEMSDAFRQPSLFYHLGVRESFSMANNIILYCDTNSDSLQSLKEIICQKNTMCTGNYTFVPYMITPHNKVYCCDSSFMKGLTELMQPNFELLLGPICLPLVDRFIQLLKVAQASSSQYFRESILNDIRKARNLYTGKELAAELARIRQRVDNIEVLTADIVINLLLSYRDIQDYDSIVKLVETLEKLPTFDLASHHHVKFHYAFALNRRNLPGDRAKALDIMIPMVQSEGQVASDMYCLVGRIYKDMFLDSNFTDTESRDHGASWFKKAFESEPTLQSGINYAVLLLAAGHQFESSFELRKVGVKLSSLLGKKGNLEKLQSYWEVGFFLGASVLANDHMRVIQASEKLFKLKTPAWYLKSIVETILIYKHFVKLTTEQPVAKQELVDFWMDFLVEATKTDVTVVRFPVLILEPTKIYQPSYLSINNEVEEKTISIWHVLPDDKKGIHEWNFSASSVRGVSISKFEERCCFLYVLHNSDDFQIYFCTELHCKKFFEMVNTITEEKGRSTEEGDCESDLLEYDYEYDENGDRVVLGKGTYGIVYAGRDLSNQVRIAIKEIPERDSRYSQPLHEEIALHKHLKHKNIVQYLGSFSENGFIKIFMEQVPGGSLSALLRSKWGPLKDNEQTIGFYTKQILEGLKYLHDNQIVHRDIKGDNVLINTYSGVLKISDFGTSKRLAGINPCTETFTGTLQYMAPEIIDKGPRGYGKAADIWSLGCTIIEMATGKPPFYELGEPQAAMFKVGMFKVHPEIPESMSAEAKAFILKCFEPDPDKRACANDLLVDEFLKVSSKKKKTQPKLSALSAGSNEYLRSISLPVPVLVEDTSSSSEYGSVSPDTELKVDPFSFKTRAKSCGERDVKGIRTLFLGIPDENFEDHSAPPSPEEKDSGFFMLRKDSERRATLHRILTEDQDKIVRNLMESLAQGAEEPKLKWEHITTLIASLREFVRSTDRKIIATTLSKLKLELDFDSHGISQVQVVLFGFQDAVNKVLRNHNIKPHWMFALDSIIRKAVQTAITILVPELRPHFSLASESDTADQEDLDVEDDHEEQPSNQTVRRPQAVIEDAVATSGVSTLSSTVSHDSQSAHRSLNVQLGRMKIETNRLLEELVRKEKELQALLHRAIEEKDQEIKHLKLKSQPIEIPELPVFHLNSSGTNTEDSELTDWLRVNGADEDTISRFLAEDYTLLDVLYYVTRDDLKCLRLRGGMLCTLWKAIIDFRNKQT
Test: HTRF KinEASE Assay : ASK1 was purchased from Thermofisher (Catalogue #PV4011), ATP was purchased from Sigma (Catalogue #A7699), HTRF® KinEASE Assay System was obtained from Cisbio (Bedford, Mass.). ½ Area plate was purchased from Perkin Elmer (Catalogue ##6005560). HTRF® KinEASE-STK is a generic method for measuring serine/threonine kinase activities using a time-resolved fluorescence resonance energy transfer (TR-FRET) immunoassay. The IC50 value for each compound was determined in the presence of compound (various concentration from 0 to 10 μM) and a fixed amount of ATP and peptide substrates. The test compound, 1 μM STK3 peptide substrate, and […] are incubated with kinase reaction buffer containing 50 mM HEPES Ph 7.5, 0.01% BRIJ-35, 10 mM MgCl2, and 1 mM EGTA for 30 minutes. 100 μM ATP is added to start kinase reaction and incubated for 3 hours. The STK3-antibody labeled with Eu3+-Cryptate and 125 nM streptavidin-XL665 are mixed in a single addition with stop reagents provided by the Cisbio kit used to stop the kinase reaction. Fluorescence is detected using an Envision Multilabeled 2014 reader from PerkinElmer. The Fluorescence is measured at 615 nm (Cryptate) and 665 nm (XL665) and a ratio of 665 nm/615 nm is calculated for each well. The resulting TR-FRET is proportional to the phosphorylation level. Staurosporine was used as the positive control. IC50 was determined by Xlfit 5.3.

IC50, < 1.25 nM:
COc1cc2c(cc1C(=O)Nc1cccc(-c3nncn3C(C)C)n1)CN(C(=O)c1ccc(F)cc1)CC2
C[C@H](CO)n1cnnc1-c1cccc(NC(=O)c2cc3c(cn2)CCN(C(=O)OCC(F)(F)F)C3)n1
C[C@H](CO)n1cnnc1-c1cccc(NC(=O)c2cc3c(cn2)CCN(Cc2ccccn2)C3)n1
C[C@H](CO)n1cnnc1-c1cccc(NC(=O)c2cc3c(cc2F)CCN(C(=O)NC2CCCC2)C3)n1
CC(C)n1cnnc1-c1cccc(NC(=O)c2cc3c(cn2)CCN(C(=O)N2CCCC2)C3)n1
COc1cc2c(cc1C(=O)Nc1cccc(-c3nnnn3[C@H](C)CO)n1)CN(C(=O)c1cnn(C)c1)CC2
CCOC(=O)N1CCc2cc(OC)c(C(=O)Nc3cccc(-c4nnnn4C(C)C)n3)cc2C1
COc1cc2c(cc1C(=O)Nc1cccc(-c3nnnn3C(C)C)n1)CN(C(=O)OC(C)C)CC2
COc1cc2c(cc1C(=O)Nc1cccc(-c3nnnn3[C@H](C)CO)n1)CN(C(=O)c1ccc(F)cc1)CC2
COc1cc2c(cc1C(=O)Nc1cccc(-c3nnnn3C(C)C)n1)CN(S(=O)(=O)C1CC1)CC2
COc1cc2c(cc1C(=O)Nc1cccc(-c3nnnn3C(C)C)n1)CN(C(=O)OCc1ccccc1)CC2

IC50, 1.25 to 10 nM:
C[C@H](CO)n1cnnc1-c1cccc(NC(=O)c2cc3c(cc2F)CCN(C(=O)OC2CCCC2)C3)n1
COc1cc2c(cc1C(=O)Nc1cccc(-c3nnnn3[C@H](C)CO)n1)CN(C)CC2
CCOC(=O)N1CCc2cnc(C(=O)Nc3cccc(-c4nncn4C(C)C)n3)cc2C1
COc1cc2c(cc1C(=O)Nc1cccc(-c3nnnn3[C@@H]3CCC[C@@H]3O)n1)CN(C(=O)OCC(F)(F)F)CC2
CCOC(=O)N1CCc2cc(OC)c(C(=O)Nc3cccc(-c4nnnn4[C@H](C)CO)n3)cc2C1
COc1cc2c(cc1C(=O)Nc1cccc(-c3nncn3[C@H](C)CO)n1)CN(C(=O)OC(C)C)CC2
